Test results taken from PubChem BioAssay AID256 (DTP/NCI, 2004).
Where “and” joins values, the source holds several entries; their conditions need not be identical. Equal entries are not always repeated. Inconclusive results and toxic doses are left out. How the source made its calls: active means survival T/C of 150% or more; inactive means T/C below 125% in these data.

System: CD2F1 mice, L1210 leukemia ip, survival T/C
Test: NCI In Vivo Anticancer Drug Screen. Data for tumor model L1210 Leukemia (intraperitoneal) in CD2F1 (CDF1) mice
Details: higher = longer survival
Procedure, shortened: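 Activity against a transplanted murine tumor was judged by comparing the compound group with a vehicle group. The outcome in the treated animals was divided by that in the controls.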

[1] = endpoint: mean survival time, dose: 100.0 mg/kg/injection, schedule: Q01DX001 (ip), vehicle: saline
[2] = endpoint: mean survival time, dose: 200.0 mg/kg/injection, schedule: Q01DX001 (ip), vehicle: saline
[3] = endpoint: mean survival time, dose: 400.0 mg/kg/injection, schedule: Q01DX001 (ip), vehicle: saline
[4] = endpoint: mean survival time, dose: 100.0 mg/kg/injection, schedule: Q01DX009 (ip), vehicle: saline with Tween-80
[5] = endpoint: mean survival time, dose: 200.0 mg/kg/injection, schedule: Q01DX009 (ip), vehicle: saline with Tween-80
[6] = endpoint: mean survival time, dose: 400.0 mg/kg/injection, schedule: Q01DX009 (ip), vehicle: saline with Tween-80
[7] = endpoint: mean survival time, dose: 100.0 mg/kg/injection, schedule: Q04DX003 (ip), vehicle: saline with Tween-80
[8] = endpoint: mean survival time, dose: 200.0 mg/kg/injection, schedule: Q04DX003 (ip), vehicle: saline with Tween-80
[9] = endpoint: mean survival time, dose: 100.0 mg/kg/injection, schedule: Q04DX002 (ip), vehicle: Klucel (hydroxypropylcellulose) (HPC)
[10] = endpoint: mean survival time, dose: 200.0 mg/kg/injection, schedule: Q04DX002 (ip), vehicle: Klucel (hydroxypropylcellulose) (HPC)
[11] = endpoint: mean survival time, dose: 400.0 mg/kg/injection, schedule: Q04DX002 (ip), vehicle: Klucel (hydroxypropylcellulose) (HPC)
[12] = endpoint: mean survival time, dose: 400.0 mg/kg/injection, schedule: Q04DX003 (ip), vehicle: saline with Tween-80
[13] = endpoint: mean survival time, dose: 100.0 mg/kg/injection, schedule: Q04DX003 (ip), vehicle: saline
[14] = endpoint: mean survival time, dose: 200.0 mg/kg/injection, schedule: Q04DX003 (ip), vehicle: saline
[15] = endpoint: mean survival time, dose: 400.0 mg/kg/injection, schedule: Q04DX003 (ip), vehicle: saline

Measured: T/C

[I][Pt+2][I].[NH-]c1ccc(S(=O)(=O)Nc2ccccn2)cc1.[NH-]c1ccc(S(=O)(=O)Nc2ccccn2)cc1
inactive: endpoint: mean survival time, dose: 20.31 mg/kg/injection, schedule: Q04DX003 (ip), vehicle: saline with Tween-80 105 % of control | endpoint: mean survival time, dose: 40.63 mg/kg/injection, schedule: Q04DX003 (ip), vehicle: saline with Tween-80 105 % of control | endpoint: mean survival time, dose: 81.25 mg/kg/injection, schedule: Q04DX003 (ip), vehicle: saline with Tween-80 90 % of control | endpoint: mean survival time, dose: 162.5 mg/kg/injection, schedule: Q04DX003 (ip), vehicle: saline with Tween-80 94 % of control | endpoint: mean survival time, dose: 325.0 mg/kg/injection, schedule: Q04DX003 (ip), vehicle: saline with Tween-80 102 % of control

C=CCc1ccc(OC(=O)Nc2ccc(S(=O)(=O)N(CCC)CCC)cc2)c(OC)c1
inactive: [1] 94 % of control | [2] 94 % of control | [3] 94 % of control

CC1(C)OC2COC3(COC(C)(C)O3)C(OS(C)(=O)=O)C2O1 (centres undefined)
inactive: [4] 102 % of control | [5] 93 % of control | [6] 95 % of control

N#CCCP(CCC#N)CCCCP(CCC#N)CCC#N
inactive: endpoint: mean survival time, dose: 6.25 mg/kg/injection, schedule: Q01DX001 (ip), vehicle: saline with Tween-80 100 % of control | endpoint: mean survival time, dose: 12.5 mg/kg/injection, schedule: Q01DX001 (ip), vehicle: saline with Tween-80 96 % of control | endpoint: mean survival time, dose: 25.0 mg/kg/injection, schedule: Q01DX001 (ip), vehicle: saline with Tween-80 98 % of control and 102 % of control

CC(=O)NCCc1ccc2c(c1)[nH]c1ccccc12
inactive: [1] 101 % of control | [2] 100 % of control | [3] 93 % of control

CCCc1c(C)[nH]c2ccc(C)cc12
inactive: endpoint: mean survival time, dose: 50.0 mg/kg/injection, schedule: Q01DX009 (ip), vehicle: saline 102 % of control | endpoint: mean survival time, dose: 100.0 mg/kg/injection, schedule: Q01DX009 (ip), vehicle: saline 104 % of control | [7] 101 % of control | [8] 86 % of control

N#Cc1ccc(NC=O)cc1
inactive: endpoint: mean survival time, dose: 100.0 mg/kg/injection, schedule: Q04DX003 (ip), vehicle: Klucel (hydroxypropylcellulose) (HPC) 98 % of control | endpoint: mean survival time, dose: 200.0 mg/kg/injection, schedule: Q04DX003 (ip), vehicle: Klucel (hydroxypropylcellulose) (HPC) 98 % of control | endpoint: mean survival time, dose: 400.0 mg/kg/injection, schedule: Q04DX003 (ip), vehicle: Klucel (hydroxypropylcellulose) (HPC) 102 % of control

O=C1OC(O)C(Br)=C1Br (centres undefined)
inactive: [9] 105 % of control | [10] 91 % of control | [11] 89 % of control

NC(Cc1c[nH]c2ccc(N(CCCl)CCCl)cc12)C(=O)O (centres undefined)
active: endpoint: mean survival time, dose: 0.5 mg/kg/injection, schedule: Q01DX010 (ip), vehicle: saline 150 % of control | endpoint: mean survival time, dose: 1.0 mg/kg/injection, schedule: Q01DX010 (ip), vehicle: saline 160 % of control | endpoint: mean survival time, dose: 2.0 mg/kg/injection, schedule: Q01DX010 (ip), vehicle: saline 208 % of control

COc1ccc(C2(C)OCCCC2([NH-])C[NH-])cc1.[Cl][Pt+2][Cl] (centres undefined)
inactive: endpoint: median survival time, dose: 10.0 mg/kg/injection, schedule: Q04DX003 (ip), vehicle: saline 105 % of control | endpoint: median survival time, dose: 20.0 mg/kg/injection, schedule: Q04DX003 (ip), vehicle: saline 103 % of control | endpoint: median survival time, dose: 40.0 mg/kg/injection, schedule: Q04DX003 (ip), vehicle: saline 105 % of control | endpoint: median survival time, dose: 80.0 mg/kg/injection, schedule: Q04DX003 (ip), vehicle: saline with Tween-80 100 % of control | endpoint: median survival time, dose: 80.0 mg/kg/injection, schedule: Q04DX003 (ip), vehicle: saline 95 % of control | endpoint: median survival time, dose: 160.0 mg/kg/injection, schedule: Q04DX003 (ip), vehicle: saline with Tween-80 110 % of control | endpoint: median survival time, dose: 320.0 mg/kg/injection, schedule: Q04DX003 (ip), vehicle: saline with Tween-80 115 % of control

CC1=CCCC2(CCC3(C)CC32)C1(C)C (centres undefined)
inactive: endpoint: mean survival time, dose: 100.0 mg/kg/injection, schedule: Q04DX003 (ip), vehicle: acetone 98 % of control | endpoint: mean survival time, dose: 200.0 mg/kg/injection, schedule: Q04DX003 (ip), vehicle: acetone 102 % of control | endpoint: mean survival time, dose: 400.0 mg/kg/injection, schedule: Q04DX003 (ip), vehicle: acetone 110 % of control

COC(CNCCO)c1ccccc1 (centres undefined)
inactive: endpoint: mean survival time, dose: 25.0 mg/kg/injection, schedule: Q01DX001 (ip), vehicle: saline 97 % of control | endpoint: mean survival time, dose: 50.0 mg/kg/injection, schedule: Q01DX001 (ip), vehicle: saline 101 % of control | [1] 100 % of control and 106 % of control

COc1cc2cc(c1Cl)N1CC(O)C(C)(O)C(=O)NC(C)C(=O)OC(CC1=O)C1(C)OC1C(C)C1CC(O)(NC(=O)O1)C(OC)/C=C\C=C(\C)C2OC (centres undefined)
inactive: endpoint: median survival time, dose: 2.0 micrograms/kg/injection, schedule: Q01DX009 (ip), vehicle: distilled water + alcohol 104 % of control | endpoint: median survival time, dose: 4.0 micrograms/kg/injection, schedule: Q01DX009 (ip), vehicle: distilled water + alcohol 104 % of control | endpoint: median survival time, dose: 8.0 micrograms/kg/injection, schedule: Q01DX009 (ip), vehicle: distilled water + alcohol 108 % of control | endpoint: median survival time, dose: 32.0 micrograms/kg/injection, schedule: Q01DX009 (ip), vehicle: distilled water + alcohol 104 % of control

C(=C\c1ccncc1)/c1ccccc1
inactive: [7] 93 % of control | [8] 92 % of control | [12] 93 % of control

C=CCCC(=O)CCCC(=O)O[C@@H]1[C@@H]2[C@H](CC1(C)C)[C@H](O)[C@@]13O[C@@H]1[C@H](O)[C@@]1(CO1)[C@@]23C
inactive: endpoint: mean survival time, dose: 6.2 micrograms/kg/injection, schedule: Q01DX009 (ip), vehicle: saline 95 % of control | endpoint: mean survival time, dose: 12.5 micrograms/kg/injection, schedule: Q01DX009 (ip), vehicle: saline 89 % of control | endpoint: mean survival time, dose: 25.0 micrograms/kg/injection, schedule: Q01DX009 (ip), vehicle: saline 95 % of control | endpoint: mean survival time, dose: 50.0 micrograms/kg/injection, schedule: Q01DX009 (ip), vehicle: saline 97 % of control | endpoint: median survival time, dose: 25.0 micrograms/kg/injection, schedule: Q01DX009 (ip), vehicle: Klucel (hydroxypropylcellulose) (HPC) 101 % of control | endpoint: median survival time, dose: 50.0 micrograms/kg/injection, schedule: Q01DX009 (ip), vehicle: Klucel (hydroxypropylcellulose) (HPC) 101 % of control | endpoint: median survival time, dose: 100.0 micrograms/kg/injection, schedule: Q01DX009 (ip), vehicle: Klucel (hydroxypropylcellulose) (HPC) 100 % of control | endpoint: median survival time, dose: 200.0 micrograms/kg/injection, schedule: Q01DX009 (ip), vehicle: Klucel (hydroxypropylcellulose) (HPC) 94 % of control | endpoint: median survival time, dose: 400.0 micrograms/kg/injection, schedule: Q01DX009 (ip), vehicle: Klucel (hydroxypropylcellulose) (HPC) 97 % of control

N#Cc1ccc(C(Cl)(Cl)Cl)cc1
inactive: [7] 104 % of control | [8] 98 % of control | [12] 96 % of control

N#Cc1cn(C2CCCCC2)c2[nH]c(=O)cc(O)c12
inactive: [13] 97 % of control | [14] 101 % of control | [15] 121 % of control

Cc1ccc(C2OC23CC(C)(C)c2ccccc2C3=O)cc1 (centres undefined)
inactive: endpoint: mean survival time, dose: 100.0 mg/kg/injection, schedule: Q01DX009 (ip), vehicle: other 100 % of control | endpoint: mean survival time, dose: 200.0 mg/kg/injection, schedule: Q01DX009 (ip), vehicle: other 96 % of control | endpoint: mean survival time, dose: 400.0 mg/kg/injection, schedule: Q01DX009 (ip), vehicle: other 107 % of control

C=C(C)C(=O)OCCO (tested in a mixture with another compound)
inactive: [4] 106 % of control | [7] 98 % of control | [5] 101 % of control | [8] 98 % of control | [6] 100 % of control | [12] 100 % of control

Sc1c(Cl)c(Cl)c(Cl)c(Cl)c1Cl
inactive: [9] 96 % of control | [10] 90 % of control | [11] 90 % of control

Nc1ncnc2c1ncn2CC(N)C(=O)O (centres undefined)
inactive: [1] 103 % of control | [2] 107 % of control | [3] 105 % of control

O=P(O)(O)c1ccccc1 (tested in a mixture with another compound)
inactive: [13] 100 % of control | [14] 91 % of control | [15] 95 % of control

CN(C)c1cccc(C(C)(C)C)n1
inactive: endpoint: mean survival time, dose: 12.5 mg/kg/injection, schedule: Q04DX002 (ip), vehicle: saline 98 % of control | endpoint: mean survival time, dose: 25.0 mg/kg/injection, schedule: Q04DX002 (ip), vehicle: saline 106 % of control | endpoint: mean survival time, dose: 50.0 mg/kg/injection, schedule: Q04DX002 (ip), vehicle: saline 95 % of control

O=Cc1cc(Cl)cc(Cl)c1O.O=Cc1cc(Cl)cc(Cl)c1O.[Co]
inactive: endpoint: mean survival time, dose: 50.0 mg/kg/injection, schedule: Q04DX003 (ip), vehicle: saline with Tween-80 90 % of control | endpoint: mean survival time, dose: 50.0 mg/kg/injection, schedule: Q04DX003 (ip), vehicle: saline 100 % of control | [7] 89 % of control | [13] 96 % of control | [8] 94 % of control | [14] 100 % of control | [12] 103 % of control | [15] 96 % of control
